Data from PubChem BioAssay (NCI).
Where “and” joins values, the source holds several entries; their conditions need not be identical. Identical values can stand only once.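 Tested at 5 concentrations; 48 h exposure; 96-well plates; endpoints linearly interpolated, else capped at highest concentration. The concentration for 50% growth inhibition is given as GI50. TGI is the concentration that stops growth completely.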

What was measured:
Test in all cases: NCI-60 cell line screen, 48 h
BT-549 breast = tested on: BT-549 breast
HCC-2998 colon = tested on: HCC-2998 colon
IGROV1 ovarian = tested on: IGROV1 ovarian
MDA-MB-435 = tested on: MDA-MB-435
NCI-H226 lung = tested on: NCI-H226 lung
NCI-H522 lung = tested on: NCI-H522 lung
NCI/ADR-RES ovarian = tested on: NCI/ADR-RES ovarian
RPMI-8226 leukemia = tested on: RPMI-8226 leukemia
SF-268 CNS = tested on: SF-268 CNS
U251 CNS = tested on: U251 CNS

| Structure (SMILES) | GI50 (BT-549 breast) | TGI (BT-549 breast) | GI50 (HCC-2998 colon) | TGI (HCC-2998 colon) | GI50 (IGROV1 ovarian) | TGI (IGROV1 ovarian) | GI50 (MDA-MB-435) | TGI (MDA-MB-435) | GI50 (NCI-H226 lung) [µM] | TGI (NCI-H226 lung) [µM] | GI50 (NCI-H522 lung) | TGI (NCI-H522 lung) | GI50 (NCI/ADR-RES ovarian) | TGI (NCI/ADR-RES ovarian) | GI50 (RPMI-8226 leukemia) | TGI (RPMI-8226 leukemia) | GI50 (SF-268 CNS) | TGI (SF-268 CNS) | GI50 (U251 CNS) | TGI (U251 CNS) |
| --- | --- | --- | --- | --- | --- | --- | --- | --- | --- | --- | --- | --- | --- | --- | --- | --- | --- | --- | --- | --- |
| CCCCCCCCCCCCOC1C(CNCC2OC3OC(C)(C)OC3C2NC(=O)Nc2ccc(C(F)(F)F)cc2)OC2OC(C)(C)OC21 (stereo unspecified) | 7.44 µM | 14.4 µM | 3.05 µM | 5.88 µM | 6.77 µM | 15.6 µM | 5.27 µM | 13.4 µM | 7.59 | 16.4 | 3.96 µM | 9.21 µM | 8.44 µM | 17.1 µM | 7.06 µM | 18.7 µM | 7.93 µM | 16.6 µM | 4.63 µM | 12.2 µM |
| Cc1cc(Nc2cc(CN3CCOCC3)c3nc(C)c(Cc4ccc(Cl)cc4F)n3n2)n[nH]1 | 1.73 µM | 8.92 µM | 1.49 µM | 3.13 µM | 2.15 µM | 5.57 µM | 0.694 µM | 19.6 µM | 0.561 | 4.07 | 0.566 µM | 2.02 µM | 4.28 µM | 18.7 µM | 1.88 µM | 14.8 µM | 1.03 µM | 4.65 µM | 1.52 µM | 5.24 µM |
| COc1cc2cn3c4ccc(O)cc4nc(N)c3c2cc1OC | 1.61 µM | 8.96 µM | 0.606 µM | 7.29 µM | 0.706 µM | 15.1 µM | 0.0195 µM | 12.8 µM | 0.201 | 3.54 | 0.0713 µM | 1.91 µM | 1.92 µM | 17.3 µM | 1.25 µM | 8.32 µM | 0.149 µM | 15.1 µM | 0.11 µM | 8.32 µM |
| CSC1=Nc2c(c(C)c(-c3ccccc3)n2CCCCl)C2=NC(=O)CN12 | 4.93 µM | 35.6 µM | 4.52 µM | 19.7 µM | 3.59 µM | 21.1 µM | 2.03 µM | 4.65 µM | 11 | 29.8 | 3.86 µM | 19.2 µM | 4.29 µM | > 100 µM | 3.68 µM | 66.5 µM | 8.57 µM | 47.6 µM | 3.92 µM | 16.4 µM |
| CC(N)(Cc1c[nH]c2ccccc12)C(=O)O (stereo unspecified) | > 2500 µM | > 2500 µM | > 2500 µM | > 2500 µM | > 2500 µM | > 2500 µM | > 2500 µM | > 2500 µM | > 2500 | > 2500 | > 2500 µM | > 2500 µM | > 2500 µM | > 2500 µM | > 2500 µM | > 2500 µM | > 2500 µM | > 2500 µM | > 2500 µM | > 2500 µM |
| Cc1cc(S(N)(=O)=O)c(S/C(=N\Nc2ccc([N+](=O)[O-])cc2)c2ccc(O)cc2)cc1Cl | 7.68 µM | 22.7 µM | 1.65 µM | 3.87 µM | 4.62 µM | 19.9 µM | 1.8 µM | 3.44 µM | 2.67 | 7.08 | 6.07 µM | 43.5 µM | 2.64 µM | 8.57 µM | 1.66 µM | 4.3 µM | 2.22 µM | 8.19 µM | 2.87 µM | 11.1 µM |
| O=C(C[C@@]1(O)C(=O)Nc2c(Cl)ccc(Cl)c21)c1ccc(C2CC2)cc1 | 0.445 µM | 11.7 µM | 0.888 µM | 14.8 µM | 0.446 µM | 13.6 µM | 0.033 µM | 0.232 µM | 1.54 | 19.7 | 0.0682 µM | 14.1 µM | 0.212 µM | 13.9 µM | 0.433 µM | 21.4 µM | 1.3 µM | 18.5 µM | 0.436 µM | 16.2 µM |
| [C-]#[O+].[C-]#[O+].[Ir].[O-]c1ccc2ccccc2c1N=Nc1ccccc1 | – | 40.1 µM | – | 29.4 µM | – | 37.1 µM | – | 54.4 µM | – | 31.9 | – | 4.01 µM | – | 51.8 µM | – | 45.2 µM | 22.7 µM | 61.5 µM | – | 34.9 µM |
| CC(C)[C@](O)(C(=O)OCC1=CC[N+]2([O-])CC[C@@H](O)[C@@H]12)[C@H](C)O (stereo partly specified) | – | > 10000 µM | – | > 10000 µM | – | > 10000 µM | – | > 10000 µM | – | > 10000 | – | > 10000 µM | – | > 10000 µM | – | > 10000 µM | – | > 10000 µM | – | > 10000 µM |
| COc1cc(-c2nc3ccccc3[nH]2)ccc1OCC(=O)N=Nc1c(O)[nH]c2ccc(Cl)cc12 | 1.98 µM | 4.03 µM | 1.32 µM | 2.8 µM | 1.52 µM | 3.05 µM | 1.43 µM | 2.76 µM | 1.83 | 3.74 | 1.48 µM | 3.48 µM | > 100 µM | > 100 µM | 1.12 µM | 3.76 µM | 1.66 µM | 3.34 µM | 0.468 µM | 1.88 µM |
| Cc1cc(O)c(C2=NN(c3ccc(S(N)(=O)=O)cc3)C(c3ccccc3O)C2)cc1Cl (stereo unspecified) | 2.08 µM | 6.11 µM | 2 µM | 3.81 µM | 1.07 µM | 5.66 µM | 2.01 µM | 4.32 µM | 1.83 | 6.05 | 1.91 µM | 4.72 µM | 2.82 µM | 8.84 µM | 2.24 µM | 10.1 µM | 2.64 µM | 8.06 µM | 2.14 µM | 5.16 µM |
| COc1ccc(-c2ccc3ncc4c(c3c2)n(-c2ccc(N3CCNCC3)c(C(F)(F)F)c2)c(=O)n4C)cn1 | < 0.01 µM and 0.00552 µM | 0.0556 µM and 0.0647 µM | < 0.01 µM and 0.00675 µM | 1.34 µM and 0.269 µM | < 0.01 µM and 0.0016 µM | 0.0332 µM and 0.0162 µM | < 0.01 µM and 0.00272 µM | 0.0732 µM and 0.106 µM | 0.00858 | 0.116 | < 0.01 µM and 0.00669 µM | 1.07 µM and 0.379 µM | 0.0531 µM and 0.0595 µM | 1.27 µM and 0.712 µM | < 0.01 µM and 0.00374 µM | 0.163 µM and 0.0549 µM | < 0.01 µM and 0.00867 µM | 0.755 µM and 1.22 µM | < 0.01 µM and 0.00869 µM | 0.13 µM and 0.429 µM |
| Cc1ccc(Nc2[nH]c(C(=O)c3ccc(Cl)cc3)c(N)c2C(=S)Nc2ccccc2)nc1 | 30.7 µM | > 100 µM | 15.9 µM | 33.2 µM | 31.3 µM | > 100 µM | 23 µM | 96.3 µM | 26 | 91.3 | 24 µM | 73.2 µM | 15.9 µM | 87.7 µM | 25.5 µM | > 100 µM | 32.7 µM | > 100 µM | 26.8 µM | > 100 µM |
| Cc1c2cnccc2c(C)c2c1c1cc(C(=O)O)ccc1n2C | 1.47 µM | 4.82 µM | 1.25 µM | 4.61 µM | 0.911 µM | 9.84 µM | 1.33 µM | 3.4 µM | 0.454 | 2.47 | 0.943 µM | 3.9 µM | 0.764 µM | 5.5 µM | 1.26 µM | 5.66 µM | 0.937 µM | 4.81 µM | 0.918 µM | 7.95 µM |
| CCOC(=O)/C(=C/c1ccccc1)C(=O)c1ccccc1 | 6.29 µM | 19.6 µM | 1.93 µM | 3.69 µM | 2.86 µM | 8.05 µM | 2.96 µM | 11.5 µM | 3.48 | 18.9 | 2.14 µM | 4.5 µM | 3.6 µM | 70 µM | 2.25 µM | 5.98 µM | 4.37 µM | 21.1 µM | 3.22 µM | 13.6 µM |
